Inhibition data for 54 compounds are collected here from PubChem BioAssay AID720623 (The Scripps Research Institute Molecular Screening Center, 2013).

Activity calls are given as the source filed them. How the calls were made is not given here.

For this assay, the system named is methionyl-tRNA synthetase (Trypanosoma brucei brucei). Put plainly: inhibition of trypanosomal MetRS charging activity – biochemical, radioactivity, assay provider, counter-screen for T. brucei MetRS inhibitor project, late-stage follow-up (AID 720623). The conditions noted are these: Recombinant T. brucei MetRS enzyme, [3H]methionine tRNA aminoacylation, filter scintillation, 120 min, stronger effect = higher value. On the technique in general: The purpose of a counterscreen is to sort out artefacts and off-target activity.

As for `O=C(NCc1nc2ccccc2[nH]1)C1=C[C@@H](c2ccc(Br)cc2)C[C@@H](OCCCCO)O1`, the inhibition is, setting by setting: (at 10 µM) 99.9%; (inhibition, at 1 µM) 84.2%.
In the case of `Cc1ccc(NC(=O)CN(C)C(=O)CCSc2ccc(F)cc2)cc1`, the inhibition by setting is: (at 10 µM) 67.3%; (inhibition, at 1 µM) -1.05%.
On the same counts, the results for `CN(Cc1cc(Cl)cc(Cl)c1)[C@H]1C[C@H]2c3[nH]c4ccccc4c3CCN2C(=O)[C@H]1CO` are 101% and 95.1%.
With `O=C(CN1CCSC1=NCc1ccccc1)c1ccc(Cl)c(Cl)c1`, the inhibition reads like this: (at 10 µM) 28% (inactive); (inhibition, at 1 µM) -1.95%.
The corresponding values for `O=C(NCc1nc2ccccc2[nH]1)C1=C[C@@H](C2CC2)C[C@@H](OCc2ccc(CO)cc2)O1` are 93.6% and 52.8%.
The corresponding values for `O=C(NCc1nc2ccccc2[nH]1)C1=C[C@@H](c2ccc3c(c2)OCO3)C[C@@H](OCCCCO)O1` are 93.7% and 50.4%.
The corresponding values for `COc1ccccc1-n1c(SCC(=O)Nc2ccc(Cl)cc2)nc(O)c(Cc2ccccc2)c1=O` are 67% and 2.04%.
For the compound `CCOC(=O)N1CCC(Nc2c(Nc3ccc(F)cc3)c(=O)c2=O)CC1`, the inhibition runs as follows: (at 10 µM) 72.7%; (inhibition, at 1 µM) 28.4%.
The corresponding values for `CC(CC(=O)Nc1cccc(Br)c1)=NNC(=O)c1ccc(O)cc1O` are 90.5% and 36.5%.
Take `O=C(CCC(=O)Nc1cccc([N+](=O)[O-])c1)NN=Cc1cccs1`: the inhibition reads like this: (at 10 µM) 74.3%; (inhibition, at 1 µM) 6.25%.
As to `O=C(CC=NOCc1ccc([N+](=O)[O-])cc1)Nc1ccc(Cl)cc1`, the inhibition was 86.5% (at 10 µM) and 28.6% (inhibition, at 1 µM).
For the compound `COc1ccc2[nH]c3nc(SCC(=O)Nc4ccc5c(c4)OCO5)nnc3c2c1`, the inhibition was 65.6% (at 10 µM) and 63.4% (inhibition, at 1 µM).
`O=C(Nc1ccc(F)c(Cl)c1)C1CC(=O)n2c(nc3ccccc32)N1` (stereo not drawn): the inhibition is, setting by setting: (at 10 µM) 90.3%; (inhibition, at 1 µM) 44.9%.
`O=C(NCc1nc2ccccc2[nH]1)C1=C[C@H](c2csc3ccccc23)C[C@H](OCCCCO)O1`: the inhibition runs as follows: (at 10 µM) 97.8%; (inhibition, at 1 µM) 71.1%.
With `O=C(NCc1nc2ccccc2[nH]1)C1=C[C@H](c2ccc(Br)cc2)C[C@H](OCc2ccc(CO)cc2)O1`, the inhibition reads like this: (at 10 µM) 94.6%; (inhibition, at 1 µM) 50.3%.
As to `O=C(NCc1nc2ccccc2[nH]1)C1=C[C@@H](c2ccccc2)C[C@@H](OCc2ccc(CO)cc2)O1`, the inhibition (at 10 µM) was 94.3% and the inhibition (inhibition, at 1 µM) is 44.6%.
Regarding `O=C1CC(N(CCc2ccccc2)C(=S)Nc2ccccc2)C(=O)N1c1ccc(Br)cc1` (stereo not drawn), the inhibition is 97.3% (at 10 µM) and 84.2% (inhibition, at 1 µM).
For the compound `O=C(NCc1nc2ccccc2[nH]1)C1=C[C@H](C2CC2)C[C@H](OCc2ccc(CO)cc2)O1`, the inhibition by setting is: (at 10 µM) 56.9%; (inhibition, at 1 µM) -3.3%.
For `CCO[C@@H]1OC(C(=O)NCc2nc3ccccc3[nH]2)=C[C@H](c2ccc(Br)cc2)[C@H]1CCCO`, the inhibition reads like this: (at 10 µM) 64%; (inhibition, at 1 µM) 6.72%.
Take `O=C(NCc1nc2ccccc2[nH]1)C1=C[C@H](c2ccccc2)C[C@H](OCc2ccc(CO)cc2)O1`: the inhibition by setting is: (at 10 µM) 61.8%; (inhibition, at 1 µM) 7.32%.
For the compound `Cc1[nH]c2ccc(Br)cc2c(=O)c1CN1CCCCCC1`, the inhibition (at 10 µM) was 86.6% and the inhibition (inhibition, at 1 µM) worked out at 19.4%.
As to `O=C(NCc1nc2ccccc2[nH]1)C1=C[C@H](c2ccc(Br)cc2)C[C@H](OCCCCO)O1`, the inhibition is, setting by setting: (at 10 µM) 94.3%; (inhibition, at 1 µM) 51.6%.
Consider `CN1CC(=O)N2C(c3cccc([N+](=O)[O-])c3)c3[nH]c4ccccc4c3C[C@H]2C1=O` (stereo partly drawn), for which the inhibition (at 10 µM) is 96.7% and the inhibition (inhibition, at 1 µM) came to 57.7%.
On to `COc1cccc(NC(=O)CSc2nnc3c(n2)[nH]c2ccc(C)cc23)c1`, for which the inhibition runs as follows: (at 10 µM) 94.2%; (inhibition, at 1 µM) 97.7%.
`CC(C)(C)[C@@H]1C=C(C(=O)NCc2nc3ccccc3[nH]2)O[C@H](OCc2ccc(CO)cc2)C1`: the inhibition was 84.8% (at 10 µM) and 30.8% (inhibition, at 1 µM).
On to `O=C(NNC(=O)c1cc(-c2ccc(Cl)c(Cl)c2)nc2ccccc12)Nc1ccccc1`, for which the inhibition was 85.5% (at 10 µM) and 59.7% (inhibition, at 1 µM).
On to `COc1ccc(CNC(=O)CSc2nnc3c(n2)[nH]c2ccc(F)cc23)cc1`, for which the inhibition is 89.6% (at 10 µM) and 47.5% (inhibition, at 1 µM).
As to `O=C1CC(SCc2nc3ccccc3[nH]2)C(=O)N1c1cccc(Cl)c1` (stereo not drawn), the inhibition runs as follows: (at 10 µM) 52.6%; (inhibition, at 1 µM) 19.7%.
With `O=C(C[C@H]1C(=O)N(Cc2ccccc2)C[C@@H]1c1ccc(Br)cc1)Nc1ccc(Br)cc1`, the inhibition by setting is: (at 10 µM) 94.4%; (inhibition, at 1 µM) 55.7%.
On to `CCO[C@H]1OC(C(=O)NCc2nc3ccccc3[nH]2)=C[C@@H](c2ccc(Br)cc2)[C@@H]1CCCO`, for which the inhibition was 81.6% (at 10 µM) and 0.88% (inhibition, at 1 µM).
On the same counts, the results for `CC(C)(C)[C@H]1C=C(C(=O)NCc2nc3ccccc3[nH]2)O[C@@H](OCc2ccc(CO)cc2)C1` are 83.8% and 21.6%.
Consider `O=C(NCc1nc2ccccc2[nH]1)C1=C[C@H](c2ccc3c(c2)OCO3)C[C@H](OCCCCO)O1`, for which the inhibition (at 10 µM) is 79.4% and the inhibition (inhibition, at 1 µM) turned out to be 5.68%.
Turning to `Clc1ccc(-c2nnc(SCc3nc4ccccc4[nH]3)o2)c(Cl)c1`, the inhibition (at 10 µM) was 97% and the inhibition (inhibition, at 1 µM) stood at 75.3%.
For the compound `O=C1[C@@H]2Cc3c([nH]c4ccccc34)C(c3cccc([N+](=O)[O-])c3)N2C(=O)CN1CCCO` (stereo partly drawn), the inhibition runs as follows: (at 10 µM) 97.5%; (inhibition, at 1 µM) 63.2%.
Consider `O=C(Cn1cc(C(=O)C(=O)N2CCOCC2)c2ccccc21)Nc1cccc(C(F)(F)F)c1`, for which the inhibition (at 10 µM) is 100% and the inhibition (inhibition, at 1 µM) amounted to 87.5%.
As for `COc1ccc(OCC(O)CNC(=O)Nc2ccc(Cl)cc2)cc1` (stereo not drawn), the inhibition by setting is: (at 10 µM) 61.9%; (inhibition, at 1 µM) 28.9%.
`O=C(NCCc1nc2ccccc2[nH]1)c1ccc(Cl)c([N+](=O)[O-])c1`: the inhibition is 99.6% (at 10 µM) and 89.8% (inhibition, at 1 µM).
On the same counts, the results for `Oc1c(Cl)cc(Cl)cc1CNc1nc2ccccc2[nH]1` are 98.7% and 88.3%.
Consider `CC(=O)c1ccc(N2CCN(C(=O)CCCn3c(=O)[nH]c4ccc(Br)cc4c3=O)CC2)cc1`, for which the inhibition (at 10 µM) is 97% and the inhibition (inhibition, at 1 µM) turned out to be 68.1%.
Consider `CN(CC(=O)Nc1ccc(Cl)cc1)C(=O)c1ccc(-n2cncn2)c([N+](=O)[O-])c1`, for which the inhibition (at 10 µM) was 92.5% and the inhibition (inhibition, at 1 µM) was determined as 38%.
On the same counts, the results for `CC(=O)c1c[nH]c(C(=O)NCc2cccc(C(F)(F)F)c2)c1` are 92.7% and 44.6%.
As for `C[C@H](O)[C@@H]1C(=O)N2CCc3c([nH]c4ccccc34)[C@@H]2C[C@@H]1N(C)Cc1ccc2c(c1)OCO2`, the inhibition was 80.4% (at 10 µM) and 1.98% (inhibition, at 1 µM).
On to `O=C(NNC(=O)c1ccc(-n2cncn2)c([N+](=O)[O-])c1)c1ccc(Cl)cc1`, for which the inhibition was 73% (at 10 µM) and 7.36% (inhibition, at 1 µM).
On the same counts, the results for `O=C(Cn1cnc2ccccc21)Nc1cccc([N+](=O)[O-])c1` are 91.9% and 44.9%.
`O=C(NCc1nc2ccccc2[nH]1)C1=C[C@@H](c2csc3ccccc23)C[C@@H](OCCCCO)O1`: the inhibition runs as follows: (at 10 µM) 89.2%; (inhibition, at 1 µM) 20.6%.
With `Brc1cnc2nc(SCc3nc4ccccc4[nH]3)[nH]c2c1`, the inhibition is, setting by setting: (at 10 µM) 84.9%; (inhibition, at 1 µM) 23.7%.
For `O=C(CC(=O)Nc1cccc(Cl)c1)NN=Cc1ccccc1`, the inhibition was 81.1% (at 10 µM) and 28.2% (inhibition, at 1 µM).
For `Clc1ccc(OCCSCc2nc3ccccc3[nH]2)cc1`, the inhibition is, setting by setting: (at 10 µM) 44.8% (inactive); (inhibition, at 1 µM) -2.58%.
As to `CC(C)OCCCN1CC(=O)N2C(c3cccc([N+](=O)[O-])c3)c3[nH]c4ccccc4c3C[C@H]2C1=O` (stereo partly drawn), the inhibition is 93.1% (at 10 µM) and 50% (inhibition, at 1 µM).
Consider `O=C(NCc1nc2ccccc2[nH]1)C1=C[C@@H](c2ccc(Br)cc2)C[C@@H](OCc2ccc(CO)cc2)O1`, for which the inhibition is 97.6% (at 10 µM) and 62.1% (inhibition, at 1 µM).
With `O=C(CC=NOCc1ccc([N+](=O)[O-])cc1)Nc1ccc(Br)cc1`, the inhibition was 84.7% (at 10 µM) and 32.2% (inhibition, at 1 µM).
Take `CCCCCCCCCC1NC(C(=O)O)Cc2c1[nH]c1ccccc21` (stereo not drawn): the inhibition is 93.2% (at 10 µM) and 64.7% (inhibition, at 1 µM).
`O=C(N/C(=C\c1cccnc1)c1nc2ccccc2[nH]1)c1cccc(Br)c1`: the inhibition (at 10 µM) is 71.7% and the inhibition (inhibition, at 1 µM) amounted to 14.4%.
As to `COc1ccccc1NS(=O)(=O)c1cccc(NC(=O)Nc2ccccc2)c1`, the inhibition by setting is: (at 10 µM) 95.1%; (inhibition, at 1 µM) 57%.

The inhibition is the relative decrease from the control value, in per cent.
